Columns and labels:
B16 Melanoma [1] = experiment: B16 Melanoma - Test 2 (ip tumor brei); type: in vivo, mice; details: QD +9
L1210 Leukemia [2] = experiment: L1210 Leukemia - Test 3 (vehicle comparison); type: in vivo, mice; details: for Effect MST % T/C / MST Days: Day 1 only
L1210 Leukemia [3] = experiment: L1210 Leukemia - Test 2; type: in vivo, mice
[4] = water
Lewis Lung Carcinoma = Lewis Lung Carcinoma - Test 1 (ip, delayed therapy); type: in vivo, mice
B16 Melanoma [5] = experiment: B16 Melanoma - Test 3 (sc trocar fragments); type: in vivo, mice

[NH2][Pt]1([NH2])[O]C(=O)C([O-])C(=O)[O]1.[Na+] [Example 3, 2-Hydroxymalonato diammine platinum (II), sodium salt]
Average Weight Change (B16 Melanoma [1]; 2 mg/kg/day ip): -1.5 g
Effect MST % T/C (B16 Melanoma [1]; 2 mg/kg/day ip): 160 % T/C
MST Days (B16 Melanoma [1]; 2 mg/kg/day ip): 33.0 days
Average Weight Change (B16 Melanoma [1]; 4 mg/kg/day ip): -2.8 g
Effect MST % T/C (B16 Melanoma [1]; 4 mg/kg/day ip): 168 % T/C
MST Days (B16 Melanoma [1]; 4 mg/kg/day ip): 34.5 days
Average Weight Change (B16 Melanoma [1]; 8 mg/kg/day ip): -3.2 g
Effect MST % T/C (B16 Melanoma [1]; 8 mg/kg/day ip): 163 % T/C
Average Weight Change (B16 Melanoma [1]; 16 mg/kg/day ip): -2.9 g
Effect MST % T/C (B16 Melanoma [1]; 16 mg/kg/day ip): 185 % T/C
MST Days (B16 Melanoma [1]; 16 mg/kg/day ip): 38.0 days
Survivors Day 10 (60) (B16 Melanoma [1]; Day 10, 8 mg/kg/day ip): 9/10
Survivors Day 10 (60) (B16 Melanoma [1]; Day 60 (figure in parentheses), 16 mg/kg/day ip): 1
Effect MST % T/C (L1210 Leukemia [2]; 10 mg/kg ip, vehicle H2O): 114 % T/C
MST Days (L1210 Leukemia [2]; 10 mg/kg ip, vehicle H2O): 8.0 days
Effect MST % T/C (L1210 Leukemia [2]; 10 mg/kg ip, vehicle Saline): 100 % T/C
MST Days (L1210 Leukemia [2]; 10 mg/kg ip, vehicle Saline): 7.0 days
Effect MST % T/C (L1210 Leukemia [2]; 20 mg/kg ip, vehicle H2O): 143 % T/C
MST Days (L1210 Leukemia [2]; 20 mg/kg ip, vehicle H2O): 10.0 days
Effect MST % T/C (L1210 Leukemia [2]; 20 mg/kg ip, vehicle Saline): 100 % T/C
MST Days (L1210 Leukemia [2]; 20 mg/kg ip, vehicle Saline): 7.0 days
Effect MST % T/C (L1210 Leukemia [2]; 40 mg/kg ip, vehicle H2O): 129 % T/C
MST Days (L1210 Leukemia [2]; 40 mg/kg ip, vehicle H2O): 9.0 days
Effect MST % T/C (L1210 Leukemia [2]; 40 mg/kg ip, vehicle Saline): 114 % T/C
MST Days (L1210 Leukemia [2]; 40 mg/kg ip, vehicle Saline): 8.0 days
Effect MST % T/C (L1210 Leukemia [2]; 60 mg/kg ip, vehicle H2O): 143 % T/C
MST Days (L1210 Leukemia [2]; 60 mg/kg ip, vehicle H2O): 10.0 days
Effect MST % T/C (L1210 Leukemia [2]; 60 mg/kg ip, vehicle Saline): 114 % T/C
MST Days (L1210 Leukemia [2]; 60 mg/kg ip, vehicle Saline): 8.0 days
Effect MST % T/C (L1210 Leukemia [2]; 80 mg/kg ip, vehicle H2O): 143 % T/C
MST Days (L1210 Leukemia [2]; 80 mg/kg ip, vehicle H2O): 10.0 days
Effect MST % T/C (L1210 Leukemia [2]; 80 mg/kg ip, vehicle Saline): 143 % T/C
MST Days (L1210 Leukemia [2]; 80 mg/kg ip, vehicle Saline): 10.0 days
Effect MST % T/C (L1210 Leukemia [2]; 100 mg/kg ip, vehicle H2O): 143 % T/C
MST Days (L1210 Leukemia [2]; 100 mg/kg ip, vehicle H2O): 10.0 days
Effect MST % T/C (L1210 Leukemia [2]; 100 mg/kg ip, vehicle Saline): 129 % T/C
MST Days (L1210 Leukemia [2]; 100 mg/kg ip, vehicle Saline): 9.0 days
Maximum increase in median lifespan (T/C) (L1210 Leukemia [2]; single dose ip, saline and water as vehicles): 143%
Effect MST % T/C (L1210 Leukemia [3]; 4 mg/kg/inj ip, qd 1→9): 100 % T/C
MST Days (L1210 Leukemia [3]; 4 mg/kg/inj ip, qd 1→9): 7.0 days
Effect MST % T/C (L1210 Leukemia [3]; 8 mg/kg/inj ip, qd 1→9): 114 % T/C
MST Days (L1210 Leukemia [3]; 8 mg/kg/inj ip, qd 1→9): 8.0 days
Effect MST % T/C (L1210 Leukemia [3]; 16 mg/kg/inj ip, qd 1→9): 157 % T/C
MST Days (L1210 Leukemia [3]; 16 mg/kg/inj ip, qd 1→9): 11.0 days
Effect MST % T/C (L1210 Leukemia [3]; 20 mg/kg/inj iv, d.1, 5&9): 100 % T/C
MST Days (L1210 Leukemia [3]; 20 mg/kg/inj iv, d.1, 5&9): 7.0 days
Effect MST % T/C (L1210 Leukemia [3]; 24 mg/kg/inj ip, qd 1→9): 207 % T/C
MST Days (L1210 Leukemia [3]; 24 mg/kg/inj ip, qd 1→9): 14.5 days
Effect MST % T/C (L1210 Leukemia [3]; 40 mg/kg/inj ip, d.1): 114 % T/C
MST Days (L1210 Leukemia [3]; 40 mg/kg/inj ip, d.1): 8.0 days
Effect MST % T/C (L1210 Leukemia [3]; 40 mg/kg/inj iv, d.1): 100 % T/C
MST Days (L1210 Leukemia [3]; 40 mg/kg/inj iv, d.1): 7.0 days
Effect MST % T/C (L1210 Leukemia [3]; 40 mg/kg/inj iv, d.1, 5&9): 107 % T/C
MST Days (L1210 Leukemia [3]; 40 mg/kg/inj iv, d.1, 5&9): 7.5 days
Effect MST % T/C (L1210 Leukemia [3]; 60 mg/kg/inj ip, d.1): 121 % T/C
MST Days (L1210 Leukemia [3]; 60 mg/kg/inj ip, d.1): 8.5 days
Effect MST % T/C (L1210 Leukemia [3]; 60 mg/kg/inj iv, d.1): 100 % T/C
MST Days (L1210 Leukemia [3]; 60 mg/kg/inj iv, d.1): 7.0 days
Effect MST % T/C (L1210 Leukemia [3]; 60 mg/kg/inj iv, d.1, 5&9): 143 % T/C
MST Days (L1210 Leukemia [3]; 60 mg/kg/inj iv, d.1, 5&9): 10.0 days
Effect MST % T/C (L1210 Leukemia [3]; 80 mg/kg/inj iv, d.1, 5&9): 100 % T/C
MST Days (L1210 Leukemia [3]; 80 mg/kg/inj iv, d.1, 5&9): 7.0 days
Effect MST % T/C (L1210 Leukemia [3]; 90 mg/kg/inj ip, d.1): 143 % T/C
MST Days (L1210 Leukemia [3]; 90 mg/kg/inj ip, d.1): 10.0 days
Effect MST % T/C (L1210 Leukemia [3]; 90 mg/kg/inj iv, d.1): 107 % T/C
MST Days (L1210 Leukemia [3]; 90 mg/kg/inj iv, d.1): 7.5 days
Effect MST % T/C (L1210 Leukemia [3]; 120 mg/kg/inj ip, d.1): 136 % T/C
MST Days (L1210 Leukemia [3]; 120 mg/kg/inj ip, d.1): 9.5 days
Effect MST % T/C (L1210 Leukemia [3]; 120 mg/kg/inj iv, d.1): 100 % T/C
MST Days (L1210 Leukemia [3]; 120 mg/kg/inj iv, d.1): 7.0 days
maximum T/C (L1210 Leukemia [3]; iv, multi-dose regimen): 143%
maximum T/C (L1210 Leukemia [3]; multi-dose therapy ip (qd 1→9)): 207-214%
maximum T/C (L1210 Leukemia [3]; single ip doses, ip L1210): 143%
Solubility in H2O at 22-25°C [4]: > 100 mg/mL
Effect MST %TC (Lewis Lung Carcinoma; 4 mg/kg/inj ip, qd 5→13): 120 %TC
MST Days (Lewis Lung Carcinoma; 4 mg/kg/inj ip, qd 5→13): 15.0 days
Effect MST %TC (Lewis Lung Carcinoma; 8 mg/kg/inj ip, qd 5→13): 140 %TC
MST Days (Lewis Lung Carcinoma; 8 mg/kg/inj ip, qd 5→13): 17.5 days
Effect MST %TC (Lewis Lung Carcinoma; 12 mg/kg/inj ip, qd 5→13): 148 %TC
MST Days (Lewis Lung Carcinoma; 12 mg/kg/inj ip, qd 5→13): 18.5 days
Effect MST %TC (Lewis Lung Carcinoma; 16 mg/kg/inj ip, qd 5→13): 160 %TC
MST Days (Lewis Lung Carcinoma; 16 mg/kg/inj ip, qd 5→13): 20.0 days
Effect MST %TC (Lewis Lung Carcinoma; 20 mg/kg/inj ip, d. 5,9&13): 124 %TC
MST Days (Lewis Lung Carcinoma; 20 mg/kg/inj ip, d. 5,9&13): 15.5 days
Effect MST %TC (Lewis Lung Carcinoma; 20 mg/kg/inj iv, d. 5,9&13): 100 %TC
MST Days (Lewis Lung Carcinoma; 20 mg/kg/inj iv, d. 5,9&13): 12.5 days
Effect MST %TC (Lewis Lung Carcinoma; 40 mg/kg/inj ip, d. 5,9&13): 148 %TC
MST Days (Lewis Lung Carcinoma; 40 mg/kg/inj ip, d. 5,9&13): 18.5 days
Effect MST %TC (Lewis Lung Carcinoma; 40 mg/kg/inj iv, d. 5,9&13): 108 %TC
MST Days (Lewis Lung Carcinoma; 40 mg/kg/inj iv, d. 5,9&13): 13.5 days
Effect MST %TC (Lewis Lung Carcinoma; 60 mg/kg/inj ip, d. 5,9&13): 196 %TC
MST Days (Lewis Lung Carcinoma; 60 mg/kg/inj ip, d. 5,9&13): 24.5 days
Effect MST %TC (Lewis Lung Carcinoma; 60 mg/kg/inj iv, d. 5,9&13): 132 %TC
MST Days (Lewis Lung Carcinoma; 60 mg/kg/inj iv, d. 5,9&13): 16.5 days
Effect MST %TC (Lewis Lung Carcinoma; 80 mg/kg/inj ip, d. 5,9&13): 268 %TC
MST Days (Lewis Lung Carcinoma; 80 mg/kg/inj ip, d. 5,9&13): 33.5 days
Effect MST %TC (Lewis Lung Carcinoma; 80 mg/kg/inj iv, d. 5,9&13): 148 %TC
MST Days (Lewis Lung Carcinoma; 80 mg/kg/inj iv, d. 5,9&13): 18.5 days
long-term survivors (day 48) (Lewis Lung Carcinoma; given ip, at maximum T/C): 2 to 6
maximum T/C (Lewis Lung Carcinoma; given ip, therapy from day 5): 268%
T/C (Lewis Lung Carcinoma; given iv, therapy from day 5): 148%
Effect MST %TC (B16 Melanoma [5]; 8 mg/kg/inj ip, qd 1→9): 102 %TC
MST Days (B16 Melanoma [5]; 8 mg/kg/inj ip, qd 1→9): 31.0 days
Effect MST %TC (B16 Melanoma [5]; 12 mg/kg/inj ip, qd 1→9): 92 %TC
MST Days (B16 Melanoma [5]; 12 mg/kg/inj ip, qd 1→9): 28.0 days
Effect MST %TC (B16 Melanoma [5]; 16 mg/kg/inj ip, qd 1→9): 125 %TC
MST Days (B16 Melanoma [5]; 16 mg/kg/inj ip, qd 1→9): 38.0 days
Effect MST %TC (B16 Melanoma [5]; 20 mg/kg/inj iv, d.1, 5&9): 93 %TC
MST Days (B16 Melanoma [5]; 20 mg/kg/inj iv, d.1, 5&9): 28.5 days
Effect MST %TC (B16 Melanoma [5]; 24 mg/kg/inj ip, qd 1→9): TOX
MST Days (B16 Melanoma [5]; 24 mg/kg/inj ip, qd 1→9): TOX
Effect MST %TC (B16 Melanoma [5]; 40 mg/kg/inj iv, d.1, 5&9): 108 %TC
MST Days (B16 Melanoma [5]; 40 mg/kg/inj iv, d.1, 5&9): 33.0 days
Effect MST %TC (B16 Melanoma [5]; 60 mg/kg/inj iv, d.1, 5&9): 108 %TC
MST Days (B16 Melanoma [5]; 60 mg/kg/inj iv, d.1, 5&9): 33.0 days
Effect MST %TC (B16 Melanoma [5]; 80 mg/kg/inj iv, d.1, 5&9): TOX
MST Days (B16 Melanoma [5]; 80 mg/kg/inj iv, d.1, 5&9): TOX
Effect MST %TC (B16 Melanoma [5]; 100 mg/kg/inj iv, d.1, 5&9): TOX
MST Days (B16 Melanoma [5]; 100 mg/kg/inj iv, d.1, 5&9): TOX
T/C (B16 Melanoma [5]; given ip, sc-implanted B16 melanoma): 125%
maximum T/C (B16 Melanoma [5]; given iv, sc-implanted B16 melanoma): not active
